{"source": "patent US20080161407A1", "about": "“METHODS FOR TREATING METABOLIC SYNDROME” (Abbott Laboratories, priority 2003, published 2008)", "key": {"[1]": {"test": "Pooled analysis of double-blind, placebo-controlled, non-diabetic studies of at least 6 months in subjects with metabolic syndrome at baseline", "assay_type": "in vivo, human", "conditions": "change from baseline to latest assessment after month 6 up to month 12; compared to placebo", "source_text": "(§1) The benefits of sibutramine therapy can be extended to subjects with metabolic syndrome. The treatment effect of sibutramine on subjects that had metabolic syndrome at study entry in the STORM trial and by a pooled analysis of double-blind, placebo-controlled, non-diabetic studies of at least 6 months duration were studied. Subjects were identified who had increased abdominal obesity (waist circumference), decreased HDL cholesterol, and elevated triglycerides (TG) at baseline, and who also completed at least 6 months of sibutramine treatment (pooled analysis subjects: 266 sibutramine, 134 placebo; STORM: 80 sibutramine). Since all subjects in the STORM trial received sibutramine for the first 6 months of the study, only subjects subsequently randomized to receive sibutramine for a longer duration were included. The analyses for each variable were based on change from baseline to latest assessment after month 6, up to and including month 12."}, "[2]": {"conditions": "compared to placebo; cited from earlier work"}, "[3]": {"test": "STORM trial, subjects that had metabolic syndrome at study entry", "assay_type": "in vivo, human", "conditions": "change from baseline to latest assessment after month 6 up to month 12", "source_text": "as §1"}, "[4]": {"conditions": "cited from earlier work"}, "[5]": {"conditions": "subjects who lost and maintained weight, compared to baseline values of all subjects"}}, "note": "Read-outs that look alike come from different tables or passages of the source."}
{"smiles": "CC(C)CC(N(C)C)C1(c2ccc(Cl)cc2)CCC1", "note": "(centres unmarked) [sibutramine, N,N-dimethyl-1-[1-(4-chlorophenyl)cyclobutyl]-3-methylbutylamine]", "values": [{"measurement": "HDL", "setting": "[1]", "result": "clinically and statistically significant improvements"}, {"measurement": "TG", "setting": "[1]", "result": "clinically and statistically significant improvements"}, {"measurement": "waist circumference", "setting": "[1]", "result": "clinically and statistically significant improvements"}, {"measurement": "weight loss", "setting": "[1]", "result": "clinically and statistically significant improvements"}, {"measurement": "HDL cholesterol", "setting": "[2]", "result": "significant improvements"}, {"measurement": "fasting blood glucose levels", "setting": "[2]", "result": "not significantly changed"}, {"measurement": "insulin levels", "setting": "[2]", "result": "significant improvements"}, {"measurement": "triglyceride levels", "setting": "[2]", "result": "significant improvements"}, {"measurement": "waist circumference (a measure for abdominal obesity)", "setting": "[2]", "result": "significant improvements"}, {"measurement": "HDL", "setting": "[3]", "result": "favorable changes"}, {"measurement": "TG", "setting": "[3]", "result": "favorable changes"}, {"measurement": "waist circumference", "setting": "[3]", "result": "favorable changes"}, {"measurement": "weight loss", "setting": "[3]", "result": "favorable changes"}, {"measurement": "subjects who maintained at least 80% of their month six weight loss", "setting": "[4]; at two years, subjects who completed the trial, placebo 16%", "result": 43, "unit": "%"}, {"measurement": "mean fasting insulin levels", "setting": "[4]; at two years", "result": "reduced"}, {"measurement": "subjects who maintained ≧10% weight reduction", "setting": "[4]; end of two years of treatment, placebo 21%", "result": 46, "unit": "%"}, {"measurement": "subjects who maintained ≧5% weight reduction", "setting": "[4]; end of two years of treatment, placebo 44%", "result": 69, "unit": "%"}, {"measurement": "mean weight loss", "setting": "[4]; first six months of sibutramine treatment", "result": 26, "unit": "lbs"}, {"measurement": "subjects who achieved a ≧5% weight reduction", "setting": "[4]; of the 499 subjects who completed the first six months, sibutramine with reduced calorie diet and increased physical activity", "result": 94, "unit": "%"}, {"measurement": "HDL cholesterol", "setting": "[4]; [5]", "result": "clinically and statistically significant improvements"}, {"measurement": "triglycerides", "setting": "[4]; [5]", "result": "clinically and statistically significant improvements"}, {"measurement": "waist circumference", "setting": "[4]; [5]", "result": "clinically and statistically significant improvements"}, {"measurement": "impaired fasting glucose", "setting": "[4]; subjects who lost and maintained weight", "result": "significantly changed"}]}
